Laboratory results from patent US20080009418A1, “Selective Inhibitors” (Alchemia LTD., priority 2004, published 2008).

Key:
Details in all cases: compound at 10 μM
Human δ-opioid (DOP) = target: T1, Human δ-opioid (DOP) (Homo sapiens, UniProt P41143); test: Radioligand binding, human δ-opioid (DOP) membranes, FlashPlate, [3H]-Bremazocine
T1 construct: purchased Perkin Elmer Biosignal
How it was run: (§1)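 Cloned human receptor membranes were coated onto FlashPlate wells and incubated with radioligand and compound (added from a 0.5 mM DMSO daughter plate) for 1 hour at room temperature in the dark. Scintillation counting gave percent inhibition, with DMSO defining total and reference ligand defining non-specific binding.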

Human μ-opioid (MOP) = target: T2, Human μ-opioid (MOP) (Homo sapiens, UniProt P35372); test: Radioligand binding, human μ-opioid (MOP) membranes, FlashPlate, [3H]-Naloxone
T2 construct: purchased Perkin Elmer Biosignal
How it was run: as §1

Human κ-Opioid (KOP) = target: T3, Human κ-Opioid (KOP) (Homo sapiens, UniProt P41145); test: Radioligand binding, human κ-opioid (KOP) membranes, filtration, [3H]-Diprenorphine
T3 construct: purchased Perkin Elmer Biosignal
How it was run: (§2)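 Membranes from cloned human receptors were incubated with compound and radioligand for 1 hour at room temperature. Bound ligand was collected on 0.3% PEI-soaked filters, washed with cold 50 mM Tris-HCl pH 7.4, and counted by scintillation. Percent inhibition was computed against DMSO totals and reference-ligand nonspecific wells.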

Human Melanocortin (MC4) = target: T4, Human Melanocortin (MC4) (Homo sapiens, UniProt P32245); test: Radioligand binding, human melanocortin MC4 membranes, FlashPlate, [125I]-NDP-αMSH
T4 construct: purchased Perkin Elmer Biosignal
How it was run: as §1

Human opioid (ORL1) = target: T5, Human opioid (ORL1) (Homo sapiens, UniProt P41146); test: Radioligand binding, human opioid ORL1 membranes, FlashPlate, [125I]-Nociceptin
T5 construct: purchased Perkin Elmer Biosignal
How it was run: as §1

Human melanocortin (MC5) = target: T6, Human melanocortin (MC5) (Homo sapiens, UniProt P33032); test: Radioligand binding, human melanocortin MC5 membranes, FlashPlate, [125I]-NDP-αMSH
T6 construct: purchased Perkin Elmer Biosignal
How it was run: as §1

Human neurokinin (NK1) = target: T7, Human neurokinin (NK1) (Homo sapiens, UniProt P25103); test: Radioligand binding, human neurokinin NK1 membranes, filtration, [125I]-Substance P
T7 construct: purchased Perkin Elmer Biosignal
How it was run: as §2

Mouse urotensin (mUR2) = target: T8, Mouse urotensin (mUR2) (Mus musculus, UniProt Q8VIH9); test: Radioligand binding, mouse urotensin mUR2 membranes, FlashPlate, [125I]-Urotensin II
T8 construct: purchased Perkin Elmer Biosignal
T8 sequence (Q8VIH9 1-385): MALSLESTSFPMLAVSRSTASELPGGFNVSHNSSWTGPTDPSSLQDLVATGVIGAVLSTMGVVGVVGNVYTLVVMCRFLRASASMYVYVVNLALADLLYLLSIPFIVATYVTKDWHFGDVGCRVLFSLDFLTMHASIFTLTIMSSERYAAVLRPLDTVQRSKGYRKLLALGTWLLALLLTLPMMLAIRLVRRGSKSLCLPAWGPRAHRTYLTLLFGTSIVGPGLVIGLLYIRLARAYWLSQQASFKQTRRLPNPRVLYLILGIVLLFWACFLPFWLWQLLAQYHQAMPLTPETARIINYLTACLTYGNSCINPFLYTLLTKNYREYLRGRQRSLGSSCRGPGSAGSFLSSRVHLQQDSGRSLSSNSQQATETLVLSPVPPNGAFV
How it was run: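 Cloned mouse urotensin (mUR2) receptor membranes from Perkin Elmer Biosignal were immobilized in FlashPlate microplates using a proprietary coating. Each well got 19.5 μl buffer, then 0.5 μl of DMSO, reference ligand, or compound. Adding 5 μl of [125I]-Urotensin II, diluted to 5× final concentration in binding buffer, started binding. Plates were sealed with TopSeal-A and incubated 1 hour at room temperature in the dark. Wells were counted for 30 seconds each on a TopCount after a 60-second delay, and percentage inhibition was calculated.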

Human Melanocortin (MC3) = target: T9, Human Melanocortin (MC3) (Homo sapiens, UniProt P41968); test: Radioligand binding, human melanocortin MC3 membranes, FlashPlate, [125I]-NDP-αMSH
T9 construct: purchased Perkin Elmer Biosignal
How it was run: as §1

[1] = target: T10, Human melanin-concentrating hormone (MCH1) (Homo sapiens, UniProt Q99705); test: Radioligand binding, human melanin-concentrating hormone MCH1 membranes, FlashPlate, [125I]-S36057
T10 construct: purchased Perkin Elmer Biosignal
How it was run: as §1

[2] = target: T11, Human neuropeptide Y (NPY-Y1) (Homo sapiens, UniProt P25929); test: Radioligand binding, human neuropeptide Y NPY-Y1 membranes, FlashPlate, [125I]-PYY
T11 construct: purchased Perkin Elmer Biosignal
T11 sequence (P25929 1-384): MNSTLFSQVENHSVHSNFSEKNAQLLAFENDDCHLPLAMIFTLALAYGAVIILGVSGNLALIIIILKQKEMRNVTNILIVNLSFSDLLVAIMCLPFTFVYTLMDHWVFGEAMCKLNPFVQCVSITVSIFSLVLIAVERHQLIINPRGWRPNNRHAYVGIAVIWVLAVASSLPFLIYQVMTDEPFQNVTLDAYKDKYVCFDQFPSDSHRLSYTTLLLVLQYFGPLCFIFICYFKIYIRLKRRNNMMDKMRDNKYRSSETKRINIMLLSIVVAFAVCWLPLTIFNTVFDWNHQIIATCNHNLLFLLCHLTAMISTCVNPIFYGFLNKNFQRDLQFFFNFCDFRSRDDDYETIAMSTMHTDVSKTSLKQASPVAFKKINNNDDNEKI
How it was run: as §1

T7 sequence (P25103 whole entry): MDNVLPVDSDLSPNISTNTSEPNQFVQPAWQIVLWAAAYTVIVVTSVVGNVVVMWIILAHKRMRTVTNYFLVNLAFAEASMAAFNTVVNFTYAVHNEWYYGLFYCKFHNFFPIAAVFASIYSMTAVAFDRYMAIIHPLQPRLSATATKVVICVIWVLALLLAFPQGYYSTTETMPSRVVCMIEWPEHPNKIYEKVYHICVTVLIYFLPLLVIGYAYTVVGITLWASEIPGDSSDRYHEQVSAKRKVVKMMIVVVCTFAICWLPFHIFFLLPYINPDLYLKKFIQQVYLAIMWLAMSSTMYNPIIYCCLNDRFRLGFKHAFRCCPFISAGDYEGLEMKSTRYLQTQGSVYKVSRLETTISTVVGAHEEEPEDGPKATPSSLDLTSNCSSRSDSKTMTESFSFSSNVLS
T5 sequence (P41146 whole entry): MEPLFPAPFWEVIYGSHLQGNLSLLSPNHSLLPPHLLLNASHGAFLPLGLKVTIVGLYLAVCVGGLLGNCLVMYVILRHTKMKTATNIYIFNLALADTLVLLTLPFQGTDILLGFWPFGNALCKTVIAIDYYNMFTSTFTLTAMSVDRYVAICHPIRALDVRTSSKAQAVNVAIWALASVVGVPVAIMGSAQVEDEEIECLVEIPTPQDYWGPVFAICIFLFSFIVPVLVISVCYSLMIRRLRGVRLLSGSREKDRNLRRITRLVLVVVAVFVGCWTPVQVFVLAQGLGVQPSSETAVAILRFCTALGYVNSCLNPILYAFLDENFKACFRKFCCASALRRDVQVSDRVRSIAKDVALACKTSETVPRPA
T1 sequence (P41143 whole entry): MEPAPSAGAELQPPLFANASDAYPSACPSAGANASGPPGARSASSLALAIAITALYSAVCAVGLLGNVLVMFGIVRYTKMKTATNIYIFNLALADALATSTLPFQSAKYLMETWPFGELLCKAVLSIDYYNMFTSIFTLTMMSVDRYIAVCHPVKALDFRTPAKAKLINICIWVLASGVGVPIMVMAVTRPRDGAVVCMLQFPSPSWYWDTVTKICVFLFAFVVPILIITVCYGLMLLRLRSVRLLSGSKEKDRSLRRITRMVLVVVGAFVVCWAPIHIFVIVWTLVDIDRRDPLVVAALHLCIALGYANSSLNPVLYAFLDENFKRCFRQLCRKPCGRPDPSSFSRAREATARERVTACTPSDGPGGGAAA
T9 sequence (P41968 whole entry): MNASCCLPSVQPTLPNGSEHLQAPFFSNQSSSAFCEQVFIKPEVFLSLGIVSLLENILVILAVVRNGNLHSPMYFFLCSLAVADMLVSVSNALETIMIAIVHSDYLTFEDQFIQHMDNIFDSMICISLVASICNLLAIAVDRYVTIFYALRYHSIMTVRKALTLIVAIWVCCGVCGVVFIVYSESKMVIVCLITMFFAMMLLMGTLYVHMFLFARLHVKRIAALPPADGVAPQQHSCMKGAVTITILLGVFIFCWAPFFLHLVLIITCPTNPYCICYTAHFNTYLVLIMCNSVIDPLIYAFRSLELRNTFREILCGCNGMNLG
T2 sequence (P35372 whole entry): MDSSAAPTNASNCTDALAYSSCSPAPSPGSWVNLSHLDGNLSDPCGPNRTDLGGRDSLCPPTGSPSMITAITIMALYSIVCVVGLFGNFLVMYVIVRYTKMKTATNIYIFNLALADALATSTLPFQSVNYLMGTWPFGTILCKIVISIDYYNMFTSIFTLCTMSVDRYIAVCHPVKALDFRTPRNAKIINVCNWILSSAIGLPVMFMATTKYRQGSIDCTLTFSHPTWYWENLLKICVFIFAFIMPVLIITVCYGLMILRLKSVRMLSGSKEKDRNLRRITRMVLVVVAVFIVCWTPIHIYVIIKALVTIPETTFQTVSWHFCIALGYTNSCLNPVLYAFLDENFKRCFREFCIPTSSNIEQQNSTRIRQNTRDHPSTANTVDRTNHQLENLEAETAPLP
T10 sequence (Q99705 whole entry): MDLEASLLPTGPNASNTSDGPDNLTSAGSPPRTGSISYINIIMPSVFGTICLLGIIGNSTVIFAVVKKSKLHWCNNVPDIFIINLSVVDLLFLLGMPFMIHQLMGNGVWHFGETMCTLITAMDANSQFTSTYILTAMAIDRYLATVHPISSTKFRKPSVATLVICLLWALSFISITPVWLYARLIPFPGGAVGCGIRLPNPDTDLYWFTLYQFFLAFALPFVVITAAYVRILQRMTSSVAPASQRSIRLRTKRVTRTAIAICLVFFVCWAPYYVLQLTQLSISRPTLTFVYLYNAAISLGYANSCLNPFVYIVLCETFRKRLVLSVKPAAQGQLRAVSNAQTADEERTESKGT
T6 sequence (P33032 whole entry): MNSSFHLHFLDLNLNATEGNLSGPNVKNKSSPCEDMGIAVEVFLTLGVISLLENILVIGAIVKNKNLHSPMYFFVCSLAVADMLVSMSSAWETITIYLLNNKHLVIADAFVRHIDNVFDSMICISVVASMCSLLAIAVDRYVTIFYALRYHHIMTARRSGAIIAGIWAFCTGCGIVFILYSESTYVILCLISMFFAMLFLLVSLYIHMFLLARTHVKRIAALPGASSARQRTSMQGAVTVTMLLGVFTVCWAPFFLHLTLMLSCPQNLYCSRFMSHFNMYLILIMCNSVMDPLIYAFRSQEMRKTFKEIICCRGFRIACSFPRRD
T3 sequence (P41145 whole entry): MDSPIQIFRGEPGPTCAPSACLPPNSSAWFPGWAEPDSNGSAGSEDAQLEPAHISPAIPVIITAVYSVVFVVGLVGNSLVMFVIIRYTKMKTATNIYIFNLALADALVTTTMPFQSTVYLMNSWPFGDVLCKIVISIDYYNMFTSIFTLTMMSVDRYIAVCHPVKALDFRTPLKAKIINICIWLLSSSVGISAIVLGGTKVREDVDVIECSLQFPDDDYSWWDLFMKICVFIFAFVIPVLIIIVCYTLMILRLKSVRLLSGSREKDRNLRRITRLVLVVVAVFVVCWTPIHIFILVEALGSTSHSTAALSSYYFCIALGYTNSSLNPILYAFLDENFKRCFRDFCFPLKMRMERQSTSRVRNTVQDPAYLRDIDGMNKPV
T4 sequence (P32245 whole entry): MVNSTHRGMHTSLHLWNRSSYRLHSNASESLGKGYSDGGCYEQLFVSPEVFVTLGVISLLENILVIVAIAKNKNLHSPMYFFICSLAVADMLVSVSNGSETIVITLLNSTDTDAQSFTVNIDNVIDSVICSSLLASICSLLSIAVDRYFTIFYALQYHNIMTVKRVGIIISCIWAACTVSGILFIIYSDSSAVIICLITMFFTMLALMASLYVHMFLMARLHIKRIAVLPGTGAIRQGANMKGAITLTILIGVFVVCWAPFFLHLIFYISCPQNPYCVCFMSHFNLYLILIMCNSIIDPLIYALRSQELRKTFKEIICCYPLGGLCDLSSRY

Compound: N=C(N)NCCC(=O)N[C@H]1C(OCc2ccc(Cl)cc2)O[C@H](COCc2ccc3ccccc3c2)[C@@H](O)[C@@H]1OCc1ccc(-c2ccccc2)cc1 (stereo partly shown) [compound 533]
- A1: inhibition of radioligand binding, human δ-opioid (DOP) (Human δ-opioid (DOP); [3H]-Bremazocine): − (“−” indicates less than 50% inhibition at 10 μM)
- A7: inhibition of radioligand binding, human μ-opioid (MOP) (Human μ-opioid (MOP); [3H]-Naloxone): − (“−” indicates less than 50% inhibition at 10 μM)
- A2: inhibition of radioligand binding, human κ-opioid (KOP) (Human κ-Opioid (KOP); [3H]-Diprenorphine): − (“−” indicates less than 50% inhibition at 10 μM)
- A4: inhibition of radioligand binding, human melanocortin (MC4) (Human Melanocortin (MC4); [125I]-NDP-αMSH): + (“+” indicates greater than 50% inhibition at 10 μM)
- A10: inhibition of radioligand binding, human opioid (ORL1) (Human opioid (ORL1); [125I]-Nociceptin): − (“−” indicates less than 50% inhibition at 10 μM)
- A5: inhibition of radioligand binding, human melanocortin (MC5) (Human melanocortin (MC5); [125I]-NDP-αMSH): + (“+” indicates greater than 50% inhibition at 10 μM)
- A8: inhibition of radioligand binding, human neurokinin (NK1) (Human neurokinin (NK1); [125I]-Substance P): + (“+” indicates greater than 50% inhibition at 10 μM)
- A11: inhibition of radioligand binding, mouse urotensin (mUR2) (Mouse urotensin (mUR2); [125I]-Urotensin II): − (“−” indicates less than 50% inhibition at 10 μM)
- A3: inhibition of radioligand binding, human melanocortin (MC3) (Human Melanocortin (MC3); [125I]-NDP-αMSH): + (“+” indicates greater than 50% inhibition at 10 μM)
- A6: inhibition of radioligand binding, human melanin-concentrating hormone (MCH1) ([1]; [125I]-S36057): + (“+” indicates greater than 50% inhibition at 10 μM)
- A9: inhibition of radioligand binding, human neuropeptide Y (NPY-Y1) ([2]; [125I]-PYY): − (“−” indicates less than 50% inhibition at 10 μM)

Compound: COC[C@H]1OC(OCCc2ccccc2)[C@H](NC(=O)CCCN)[C@@H](OCc2ccccc2)[C@@H]1O (stereo partly shown) [compound 47]
- A1 radioligand binding inhibition (Human δ-opioid (DOP); human δ-opioid (DOP) membranes): − (“−” indicates less than 50% inhibition at 10 μM)
- A7 radioligand binding inhibition (Human μ-opioid (MOP); human μ-opioid (MOP) membranes): − (“−” indicates less than 50% inhibition at 10 μM)
- A2 radioligand binding inhibition (Human κ-Opioid (KOP); human κ-opioid (KOP) membranes): − (“−” indicates less than 50% inhibition at 10 μM)
- A4 radioligand binding inhibition (Human Melanocortin (MC4); human melanocortin MC4 membranes): − (“−” indicates less than 50% inhibition at 10 μM)
- A10 radioligand binding inhibition (Human opioid (ORL1); human ORL1 membranes): − (“−” indicates less than 50% inhibition at 10 μM)
- A5 radioligand binding inhibition (Human melanocortin (MC5); human melanocortin MC5 membranes): − (“−” indicates less than 50% inhibition at 10 μM)
- A8 radioligand binding inhibition (Human neurokinin (NK1); human neurokinin NK1 membranes): + (“+” indicates greater than 50% inhibition at 10 μM)
- A11 radioligand binding inhibition (Mouse urotensin (mUR2); mouse urotensin mUR2 membranes): − (“−” indicates less than 50% inhibition at 10 μM)
- A3 radioligand binding inhibition (Human Melanocortin (MC3); human melanocortin MC3 membranes): − (“−” indicates less than 50% inhibition at 10 μM)
- A6 radioligand binding inhibition ([1]; human MCH1 membranes): − (“−” indicates less than 50% inhibition at 10 μM)
- A9 radioligand binding inhibition ([2]; human NPY-Y1 membranes): − (“−” indicates less than 50% inhibition at 10 μM)

Compound: CSC1O[C@H](COCc2ccccc2)[C@@H](O)[C@@H](OCc2ccc(-c3ccccc3)cc2)[C@H]1NC(=O)CCN (stereo partly shown) [compound 285]
- A1: inhibition of radioligand binding, human δ-opioid (DOP) (Human δ-opioid (DOP); [3H]-Bremazocine): − (“−” indicates less than 50% inhibition at 10 μM)
- A7: inhibition of radioligand binding, human μ-opioid (MOP) (Human μ-opioid (MOP); [3H]-Naloxone): − (“−” indicates less than 50% inhibition at 10 μM)
- A2: inhibition of radioligand binding, human κ-opioid (KOP) (Human κ-Opioid (KOP); [3H]-Diprenorphine): − (“−” indicates less than 50% inhibition at 10 μM)
- A4: inhibition of radioligand binding, human melanocortin (MC4) (Human Melanocortin (MC4); [125I]-NDP-αMSH): − (“−” indicates less than 50% inhibition at 10 μM)
- A10: inhibition of radioligand binding, human opioid (ORL1) (Human opioid (ORL1); [125I]-Nociceptin): − (“−” indicates less than 50% inhibition at 10 μM)
- A5: inhibition of radioligand binding, human melanocortin (MC5) (Human melanocortin (MC5); [125I]-NDP-αMSH): − (“−” indicates less than 50% inhibition at 10 μM)
- A8: inhibition of radioligand binding, human neurokinin (NK1) (Human neurokinin (NK1); [125I]-Substance P): + (“+” indicates greater than 50% inhibition at 10 μM)
- A11: inhibition of radioligand binding, mouse urotensin (mUR2) (Mouse urotensin (mUR2); [125I]-Urotensin II): − (“−” indicates less than 50% inhibition at 10 μM)
- A3: inhibition of radioligand binding, human melanocortin (MC3) (Human Melanocortin (MC3); [125I]-NDP-αMSH): − (“−” indicates less than 50% inhibition at 10 μM)
- A6: inhibition of radioligand binding, human melanin-concentrating hormone (MCH1) ([1]; [125I]-S36057): − (“−” indicates less than 50% inhibition at 10 μM)
- A9: inhibition of radioligand binding, human neuropeptide Y (NPY-Y1) ([2]; [125I]-PYY): − (“−” indicates less than 50% inhibition at 10 μM)

Compound: CO[C@H]1[C@H](O)[C@@H](COCc2cccc(O)c2)OC(OCc2ccc(-c3ccccc3)cc2)[C@@H]1NC(=O)CNC(=N)N (stereo partly shown) [compound 146]
- A1 radioligand binding, percentage inhibition (Human δ-opioid (DOP); [3H]-Bremazocine): − (“−” indicates less than 50% inhibition at 10 μM)
- A7 radioligand binding, percentage inhibition (Human μ-opioid (MOP); [3H]-Naloxone): − (“−” indicates less than 50% inhibition at 10 μM)
- A2 radioligand binding, percentage inhibition (Human κ-Opioid (KOP); [3H]-Diprenorphine): + (“+” indicates greater than 50% inhibition at 10 μM)
- A4 radioligand binding, percentage inhibition (Human Melanocortin (MC4); [125I]-NDP-αMSH): − (“−” indicates less than 50% inhibition at 10 μM)
- A10 radioligand binding, percentage inhibition (Human opioid (ORL1); [125I]-Nociceptin): − (“−” indicates less than 50% inhibition at 10 μM)
- A5 radioligand binding, percentage inhibition (Human melanocortin (MC5); [125I]-NDP-αMSH): + (“+” indicates greater than 50% inhibition at 10 μM)
- A8 radioligand binding, percentage inhibition (Human neurokinin (NK1); [125I]-Substance P): + (“+” indicates greater than 50% inhibition at 10 μM)
- A11 radioligand binding, percentage inhibition (Mouse urotensin (mUR2); [125I]-Urotensin II): − (“−” indicates less than 50% inhibition at 10 μM)
- A3 radioligand binding, percentage inhibition (Human Melanocortin (MC3); [125I]-NDP-αMSH): − (“−” indicates less than 50% inhibition at 10 μM)
- A6 radioligand binding, percentage inhibition ([1]; [125I]-S36057): − (“−” indicates less than 50% inhibition at 10 μM)
- A9 radioligand binding, percentage inhibition ([2]; [125I]-PYY): − (“−” indicates less than 50% inhibition at 10 μM)

Compound: CSC1OC(COCc2ccc3ccccc3c2)C(O)C(OCc2ccccc2)C1NC(=O)CCCN (stereo not shown) [compound 263]
- A1: inhibition of radioligand binding (Human δ-opioid (DOP); [3H]-Bremazocine, FlashPlate): − (“−” indicates less than 50% inhibition at 10 μM)
- A7: inhibition of radioligand binding (Human μ-opioid (MOP); [3H]-Naloxone, FlashPlate): − (“−” indicates less than 50% inhibition at 10 μM)
- A2: inhibition of radioligand binding (Human κ-Opioid (KOP); [3H]-Diprenorphine, filtration): − (“−” indicates less than 50% inhibition at 10 μM)
- A4: inhibition of radioligand binding (Human Melanocortin (MC4); [125I]-NDP-αMSH, FlashPlate): − (“−” indicates less than 50% inhibition at 10 μM)
- A10: inhibition of radioligand binding (Human opioid (ORL1); [125I]-Nociceptin, FlashPlate): − (“−” indicates less than 50% inhibition at 10 μM)
- A5: inhibition of radioligand binding (Human melanocortin (MC5); [125I]-NDP-αMSH, FlashPlate): − (“−” indicates less than 50% inhibition at 10 μM)
- A8: inhibition of radioligand binding (Human neurokinin (NK1); [125I]-Substance P, filtration): + (“+” indicates greater than 50% inhibition at 10 μM)
- A11: inhibition of radioligand binding (Mouse urotensin (mUR2); [125I]-Urotensin II, FlashPlate): − (“−” indicates less than 50% inhibition at 10 μM)
- A3: inhibition of radioligand binding (Human Melanocortin (MC3); [125I]-NDP-αMSH, FlashPlate): − (“−” indicates less than 50% inhibition at 10 μM)
- A6: inhibition of radioligand binding ([1]; [125I]-S36057, FlashPlate): − (“−” indicates less than 50% inhibition at 10 μM)
- A9: inhibition of radioligand binding ([2]; [125I]-PYY, FlashPlate): − (“−” indicates less than 50% inhibition at 10 μM)
